In this assay the target is T1, human TRPV4 (Homo sapiens, UniProt Q9HBA0).
T1 construct: expressed in transfected cells; host or cells: HEK-293-MSR-II cells transduced with 1% BacMam virus
The assay can be described thus: Ligand-gated assay (Fluo4 calcium, FLIPR; inhibition of agonist-induced activation). Type of assay: cell-based. The note with it: HEK-293-MSR-II cells transduced with BacMam human TRPV4; agonist at EC80. The procedure: TRP channel activation/opening results in an influx of divalent and monovalent cations including calcium. The resulting changes in intracellular calcium were monitored using a calcium selective fluorescent dye Fluo4 (MDS Analytical Technologies). Dye loaded cells were initially exposed to test compound to verify a lack of agonist activity. Cells were subsequently activated by addition of an agonist and inhibition of the agonist-induced activation was recorded. Human embryonic kidney 293 cells stably expressing the macrophage scavenger receptor class II (HEK-293-MSR-II) and transduced with 1% BacMam (J. P. Condreay, S. M. Witherspoon, W. C. Clay and T. A. Kost, Proc Natl Acad Sci 96 (1999), pp. 127-132) virus expressing the human TRPV4 gene were plated at 15000 cells/well in a volume of 50 μL in a 384 well poly-D lysine coated plate. Cells were incubated for 24 hours at 37 degrees and 5% CO2. Media was then aspirated using a Tecan Plate-washer and replaced with 20 μL of dye loading buffer: HBSS, 500 uM Brilliant Black (MDS Analytical Technologies), 2 uM Fluo-4. Dye loaded plates were then incubated in the dark at room temperature for 1-1.5 hours. 10 μL of test compound diluted in HBSS (HBSS with 1.5 mM Calcium Chloride, 1.5 mM Magnesium Chloride and 10 mM HEPES. pH 7.4), +0.01% Chaps was added to the plate, incubated for 10 min at room temperature in the dark and then 10 μL of agonist was added at a final concentration equal to the agonist EC80. Calcium release was measured using the FLIPRtetra (MDS Analytical Technologies) or FLIPR384 (MDS Analytical Technologies).
IC50 between 0.1-10 nM (+++), >10-50 nM (++), >50-500 nM (+).

T1 sequence (Q9HBA0 whole entry): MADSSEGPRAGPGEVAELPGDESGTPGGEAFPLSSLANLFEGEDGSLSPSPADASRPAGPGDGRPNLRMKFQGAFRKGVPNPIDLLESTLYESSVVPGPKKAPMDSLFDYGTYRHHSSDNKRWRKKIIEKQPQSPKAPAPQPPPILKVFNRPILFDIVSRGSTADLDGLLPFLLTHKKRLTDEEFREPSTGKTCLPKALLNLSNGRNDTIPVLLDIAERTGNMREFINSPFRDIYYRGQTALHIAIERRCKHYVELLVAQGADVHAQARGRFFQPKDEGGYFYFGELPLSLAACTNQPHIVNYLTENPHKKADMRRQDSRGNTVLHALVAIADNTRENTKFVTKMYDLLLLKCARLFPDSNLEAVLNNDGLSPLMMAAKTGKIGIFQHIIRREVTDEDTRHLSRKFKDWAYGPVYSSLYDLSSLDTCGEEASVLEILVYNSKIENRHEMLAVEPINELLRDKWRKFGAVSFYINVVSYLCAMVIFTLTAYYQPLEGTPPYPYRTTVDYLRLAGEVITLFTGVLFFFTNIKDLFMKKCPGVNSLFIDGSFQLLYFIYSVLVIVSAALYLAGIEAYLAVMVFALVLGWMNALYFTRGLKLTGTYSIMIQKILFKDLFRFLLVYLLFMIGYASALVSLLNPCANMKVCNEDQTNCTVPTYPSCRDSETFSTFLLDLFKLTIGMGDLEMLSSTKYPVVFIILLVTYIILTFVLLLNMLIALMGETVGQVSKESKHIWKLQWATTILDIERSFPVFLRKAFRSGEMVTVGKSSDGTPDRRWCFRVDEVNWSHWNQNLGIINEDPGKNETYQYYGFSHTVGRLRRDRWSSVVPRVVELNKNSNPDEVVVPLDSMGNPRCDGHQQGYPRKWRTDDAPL

Regarding `C[C@]1(Cn2cnc3ccc(C#N)cc32)CCC[C@@]2(CN(Cc3csc4ncccc34)C(=O)O2)C1` (relative stereo) [Example 152, 1-{[(trans)-7-methyl-2-oxo-3-(thieno[2,3-b]pyridin-3-ylmethyl)-1-oxa-3-azaspiro[4.5]dec-7-yl]methyl}-1H-benzimidazole-6-carbonitrile], the IC50 was in the range of 0.1 to 10 nM.
The same measure for `N#Cc1ccc2ccn(C[C@H]3CCC[C@]4(C3)CN(Cc3csc5ccc(Cl)cc35)C(=O)O4)c2c1` (stereo in doubt) [Example 59, 1-({3-[(5-chloro-1-benzothien-3-yl)methyl]-2-oxo-1-oxa-3-azaspiro[4.5]dec-7-yl}methyl)-1H-indole-6-carbonitrile]: 50 to 500 nM.
The value for `N#Cc1ccc2nc(C(F)(F)F)n(C[C@H]3CCC[C@]4(C3)CN(Cc3csc5ccc(Cl)cc35)C(=O)O4)c2c1` (stereo in doubt) [Example 60, 1-({3-[(5-chloro-1-benzothien-3-yl)methyl]-2-oxo-1-oxa-3-azaspiro[4.5]dec-7-yl}methyl)-2-(trifluoromethyl)-1H-benzimidazole-6-carbonitrile] was 50 to 500 nM; that for `N#Cc1ccc2ncn(C[C@H]3CCC[C@]4(C3)CN(Cc3csc5ccccc35)C(=O)O4)c2c1` (stereo in doubt) [Example 62, 1-{[3-(1-benzothien-3-ylmethyl)-2-oxo-1-oxa-3-azaspiro[4.5]dec-7-yl]methyl}-1H-benzimidazole-6-carbonitrile] was 10 to 50 nM; that for `N#Cc1cc(F)cc(-n2cc(CN3CC4(CCC[C@H](Cn5cnc6ccc(C#N)cc65)C4)OC3=O)nn2)c1` (stereo in doubt) [Example 103, 1-[((5S,7S)-3-{[1-(3-cyano-5-fluorophenyl)-1H-1,2,3-triazol-4-yl]methyl}-2-oxo-1-oxa-3-azaspiro[4.5]dec-7-yl)methyl]-1H-benzimidazole-6-carbonitrile] was 0.1 to 10 nM.
The value for `CCOc1ccc(CN2CC3(CCC[C@](C)(Cn4cnc5ccc(C#N)cc54)C3)OC2=O)nc1` (stereo in doubt) [Example 157, 1-(((5S,7S)-3-((5-ethoxypyridin-2-yl)methyl)-7-methyl-2-oxo-1-oxa-3-azaspiro[4.5]decan-7-yl)methyl)-1H-benzo[d]imidazole-6-carbonitrile] was 0.1 to 10 nM.
For the molecule `C[C@]1(Cn2cnc3ccc(C#N)cc32)CCCC2(CN(Cc3cc(F)ccn3)C(=O)O2)C1` (stereo in doubt) [Example 158, 1-(((5S,7S)-3-((4-fluoropyridin-2-yl)methyl)-7-methyl-2-oxo-1-oxa-3-azaspiro[4.5]decan-7-yl)methyl)-1H-benzo[d]imidazole-6-carbonitrile], the half-inhibitory concentration (IC50) is 0.1 to 10 nM.
Take `CC(C)(C)c1cc(N2C[C@@]3(CCC[C@](C)(Cn4cnc5ccc(C#N)cc54)C3)OC2=O)on1` [Example 1, 1-({(5S,7S)-3-[3-(1,1-Dimethylethyl)-5-isoxazolyl]-7-methyl-2-oxo-1-oxa-3-azaspiro[4.5]dec-7-yl}methyl)-1H-benzimidazole-6-carbonitrile]: the IC50 was in the range of 10 to 50 nM.
The same measure for `CC(C)(C#N)c1cc(N2C[C@@]3(CCC[C@](C)(Cn4cnc5ccc(C#N)cc54)C3)OC2=O)on1` [Example 2]: 0.1 to 10 nM; for `CC(C)(C)c1cc(N2C[C@@]3(CCC[C@](C)(Cn4cnc5ccc(C#N)cc54)C3)OC2=O)no1` [Example 3, 1-({(5S,7S)-3-[5-(1,1-Dimethylethyl)-3-isoxazolyl]-7-methyl-2-oxo-1-oxa-3-azaspiro[4.5]dec-7-yl}methyl)-1H-benzimidazole-6-carbonitrile]: 0.1 to 10 nM; for `C[C@]1(Cn2cnc3ccc(C#N)cc32)CCC[C@@]2(CN(Cc3ccccn3)C(=O)O2)C1` [Example 4, 1-{[(5S,7S)-7-Methyl-2-oxo-3-(2-pyridinylmethyl)-1-oxa-3-azaspiro[4.5]dec-7-yl]methyl}-1H-benzimidazole-6-carbonitrile]: 0.1 to 10 nM.
As to `CC(C)(CN1C[C@@]2(CCC[C@H](Cn3cnc4ccc(C#N)cc43)C2)OC1=O)c1nnc(-c2ccccc2)o1` [Example 5, 1-({(5S,7S)-3-[2-Methyl-2-(5-phenyl-1,3,4-oxadiazol-2-yl)propyl]-2-oxo-1-oxa-3-azaspiro[4.5]dec-7-yl}methyl)-1H-benzimidazole-6-carbonitrile], the 50% inhibitory concentration (IC50) was 0.1 to 10 nM.
The same measure for `CCc1noc(C(C)(C)CN2C[C@@]3(CCC[C@H](Cn4cnc5ccc(C#N)cc54)C3)OC2=O)n1` [Example 6, 1-({(5S,7S)-3-[2-(3-Ethyl-1,2,4-oxadiazol-5-yl)-2-methylpropyl]-2-oxo-1-oxa-3-azaspiro[4.5]dec-7-yl}methyl)-1H-benzimidazole-6-carbonitrile]: 0.1 to 10 nM; for `CC1(CN2C[C@@]3(CCC[C@H](Cn4cnc5ccc(C#N)cc54)C3)OC2=O)CCN(c2ncccn2)C1` (stereo partly drawn) [Example 7, 1-[((5S,7S)-3-{[3-Methyl-1-(2-pyrimidinyl)-3-pyrrolidinyl]methyl}-2-oxo-1-oxa-3-azaspiro[4.5]dec-7-yl)methyl]-1H-benzimidazole-6-carbonitrile]: 50 to 500 nM; for `C[C@]1(Cn2cnc3ccc(C#N)cc32)CCC[C@@]2(CN(Cc3cn(-c4ccccc4)nn3)C(=O)O2)C1` [Example 8, 1-({(5S,7S)-7-Methyl-2-oxo-3-[(1-phenyl-1H-1,2,3-triazol-4-yl)methyl]-1-oxa-3-azaspiro[4.5]dec-7-yl}methyl)-1H-benzimidazole-6-carbonitrile]: 0.1 to 10 nM.
The value for `N#Cc1ccc2ncn(C[C@H]3CCC[C@]4(C3)CN(Cc3cn(-c5cncc(C(F)(F)F)c5)nn3)C(=O)O4)c2c1` [Example 9, 1-{[(5S,7S)-2-Oxo-3-({1-[5-(trifluoromethyl)-3-pyridinyl]-1H-1,2,3-triazol-4-yl}methyl)-1-oxa-3-azaspiro[4.5]dec-7-yl]methyl}-1H-benzimidazole-6-carbonitrile] was 0.1 to 10 nM; that for `CC(C)(C)c1noc(N2C[C@@]3(CCC[C@](C)(Cn4cnc5ccc(C#N)cc54)C3)OC2=O)c1Cl` [Example 10, 1-({(5S,7S)-3-[4-Chloro-3-(1,1-dimethylethyl)-5-isoxazolyl]-7-methyl-2-oxo-1-oxa-3-azaspiro[4.5]dec-7-yl}methyl)-1H-benzimidazole-6-carbonitrile] was 0.1 to 10 nM; that for `C[C@]1(Cn2cnc3ccc(C#N)cc32)CCC[C@@]2(CN(c3ccc(C(F)(F)F)cn3)C(=O)O2)C1` [Example 11, 1-({(5S,7S)-7-Methyl-2-oxo-3-[5-(trifluoromethyl)-2-pyridinyl]-1-oxa-3-azaspiro[4.5]dec-7-yl}methyl)-1H-benzimidazole-6-carbonitrile] was 10 to 50 nM.
The value for `CCOc1ccc(N2C[C@@]3(CCC[C@](C)(Cn4cnc5ccc(C#N)cc54)C3)OC2=O)cn1` [Example 12, ′1-({(5S,7S)-3-[6-(Ethyloxy)-3-pyridinyl]-7-methyl-2-oxo-1-oxa-3-azaspiro[4.5]dec-7-yl}methyl)-1H-benzimidazole-6-carbonitrile] was 0.1 to 10 nM; that for `COc1ccc(N2C[C@@]3(CCC[C@](C)(Cn4cnc5ccc(C#N)cc54)C3)OC2=O)cn1` [Example 13] was 0.1 to 10 nM; that for `CCOc1cnc(N2C[C@@]3(CCC[C@](C)(Cn4cnc5ccc(C#N)cc54)C3)OC2=O)cn1` [Example 14, 1-(((5S,7S)-3-(5-Ethoxypyrazin-2-yl)-7-methyl-2-oxo-1-oxa-3-azaspiro[4.5]decan-7-yl)methyl)-1H-benzo[d]imidazole-6-carbonitrile] was 0.1 to 10 nM.
Turning to `COc1cc(C)c(N2C[C@@]3(CCC[C@](C)(Cn4cnc5ccc(C#N)cc54)C3)OC2=O)cn1` [Example 15, 1-(((5S,7S)-3-(6-Methoxy-4-methylpyridin-3-yl)-7-methyl-2-oxo-1-oxa-3-azasbiro[4.5]decan-7-yl)methyl)-1H-benzo[d]imidazole-6-carbonitrile], the IC50 is 0.1 to 10 nM.
As for `CCn1ncc(N2C[C@@]3(CCC[C@](C)(Cn4cnc5ccc(C#N)cc54)C3)OC2=O)c1C` [Example 16, 1-(((5S,7S)-3-(1-Ethyl-5-methyl-1H-pyrazol-4-yl)-7-methyl-2-oxo-1-oxa-3-azaspiro[4.5]decan-7-yl)methyl)-1H-benzo[d]imidazole-6-carbonitrile], the half-inhibitory concentration (IC50) is 0.1 to 10 nM.
The value for `COc1cnc(N2C[C@@]3(CCC[C@](C)(Cn4cnc5ccc(C#N)cc54)C3)OC2=O)cn1` [Example 17, 1-(((7S)-3-(5-Methoxypyrazin-2-yl)-7-methyl-2-oxo-1-oxa-3-azaspiro[4.5]decan-7-yl)methyl)-1H-benzo[d]imidazole-6-carbonitrile] was 10 to 50 nM.
The value for `C[C@]1(Cn2cnc3ccc(C#N)cc32)CCC[C@@]2(CN(c3ccc(Cl)nc3)C(=O)O2)C1` [Example 18] was 10 to 50 nM.
In the case of `CN(C)c1ccc(N2C[C@@]3(CCC[C@](C)(Cn4cnc5ccc(C#N)cc54)C3)OC2=O)cn1` [Example 19, 1-(((5S,7S)-3-(6-(Dimethylamino)pyridin-3-yl)-7-methyl-2-oxo-1-oxa-3-azaspiro[4.5]decan-7-yl)methyl)-1H-benzo[d]imidazole-6-carbonitrile], the half-inhibitory concentration (IC50) lay in the range of 0.1 to 10 nM.
